The values below are quoted from earlier work in patent US8679552B2, “Acne vulgaris treatment regimen” (priority 2008, dated 2014).

Where only a bound is given, the exact number is not on record here.

Data set [1] deals with 5 alpha-reductase.
For another data set, the system named is comedones. To be noted: topical.
The target of the next data set is T1, type-1 5 alpha-reductase (Homo sapiens, UniProt P18405).
T1 sequence (P18405 1-259): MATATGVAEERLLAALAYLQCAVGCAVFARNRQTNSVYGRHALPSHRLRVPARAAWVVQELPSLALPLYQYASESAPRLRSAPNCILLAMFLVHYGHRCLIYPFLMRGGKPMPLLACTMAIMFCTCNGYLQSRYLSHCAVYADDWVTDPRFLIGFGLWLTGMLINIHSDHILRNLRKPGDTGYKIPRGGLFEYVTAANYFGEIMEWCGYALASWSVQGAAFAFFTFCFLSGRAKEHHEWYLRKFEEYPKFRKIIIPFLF

A further data set concerns skin irritation. Particulars: concentrations of 5%, three to four week period.
Data set [2] relates to 17-beta-hydroxysteroid dehydrogenase.
The test system of data set [3] is 5 alpha-reductase. The source holds these as a separate data set.

For the compound `O=C(O)CCCCCCCC(=O)O` [Azelaic acid], in the data set on 5 alpha-reductase [1], the “concentration at which effective / potent 5 alpha-reductase inhibitor” value is at least 0.2 milliMolar and the “concentration that is completely inhibitory of 5 alpha-reductase” value is listed as 3 milliMolar. For `CC1=C(/C=C/C(C)=C/C=C/C(C)=C/C=O)C(C)(C)CCC1` [Retinaldehyde], the “in vitro antibacterial activity against gram-positive bacteria” value in the data set on gram-positive bacteria is “significant in vitro antibacterial activity”. In addition, in the data set on comedones (concentration of 0.1%), the “effectiveness at preventing comedones” value is reported as “as effective at preventing comedones as other topical vitamin A products”. `Cc1ncc(CO)c(CO)c1O.Cl` [Vitamin B6, Pyridoxine hydrochloride]: the “increase in the inhibition of 5 alpha-reductase” value in the data set with 5 alpha-reductase [1] (Vitamin B6 (0.025%) added to zinc sulfate (1.5 to 3 milliMolar/liter)) is listed as “two fold increase”. Regarding `[Zn+2]` [Zinc cation], the “inhibition of 5 alpha-reductase enzyme activity at high concentrations” value in the data set on 5 alpha-reductase [1] (high concentrations) is given as “completely inhibiting the enzyme activity”.

On to `O=C1c2ccccc2C(=O)c2c1ccc(O)c2O` [alizarin], for which, at type-1 5 alpha-reductase, the “inhibition of type-1 5 alpha-reductase” value is “potent inhibitors”. For the compound `Oc1ccc2c(O)c3ccccc3cc2c1O` [anthrarobin], at type-1 5 alpha-reductase, the “inhibition of type-1 5 alpha-reductase” value is “potent inhibitors”. As for `O=c1cc(-c2ccccc2)oc2cc(O)c(O)c(O)c12` [baicalein], the “inhibition of type-1 5 alpha-reductase” value at type-1 5 alpha-reductase was “potent inhibitors”. For the compound `O=C(/C=C/c1ccc(O)c(O)c1)OCCc1ccccc1` [caffeic acid phenethyl ester], the “inhibition of type-1 5 alpha-reductase” value on type-1 5 alpha-reductase is “potent inhibitors”. For `CC(C)(CO)[C@@H](O)C(=O)NCCCO` [dexpanthenol], in the data set on skin irritation, the “symptoms of skin irritation (dryness, roughness, scaling, pruritis, erythema, erosion/fissures)” value is given as “considerably improves”. In the case of `O=C1OC[C@H](Cc2cccc(O)c2)[C@H]1Cc1cccc(O)c1` [enterolactone], the “5 alpha-reductase inhibitory activity” value in the data set on 5 alpha-reductase [1] is recorded as “most potent inhibitor”.

With `O=c1c(O)c(-c2ccc(O)c(O)c2)oc2cc(O)ccc12` [fisetin], on type-1 5 alpha-reductase, the “inhibition of type-1 5 alpha-reductase” value is listed as “potent inhibitors”. Turning to `CC1(C)[C@@H](O)CC[C@]2(C)[C@H]3C(=O)C=C4[C@@H]5C[C@@](C)(C(=O)O)CC[C@]5(C)CC[C@@]4(C)[C@]3(C)CC[C@@H]12` [glycyrrhetinic acid], the “concentration which suppresses 17-beta-hydroxysteroid dehydrogenase activity” value in data set [2] was at least 4 microMolar. On to `CCCCCCCCCCCCOC(=O)c1cc(O)c(O)c(O)c1` [lauryl gallate], for which the “inhibition of type-1 5 alpha-reductase” value on type-1 5 alpha-reductase is recorded as “potent inhibitors”.

Take `CC(Cc1ccc(O)c(O)c1)C(C)Cc1ccc(O)c(O)c1` (stereo not drawn) [nordihydroguaiaretic acid]: the “inhibition of type-1 5 alpha-reductase” value on type-1 5 alpha-reductase is listed as “potent inhibitors”. Turning to `CCCCCCCCOC(=O)c1cc(O)c(O)c(O)c1` [octyl gallate], the “inhibition of type-1 5 alpha-reductase” value on type-1 5 alpha-reductase is “potent inhibitors”. As to `O=c1c(O)c(-c2ccc(O)c(O)c2)oc2cc(O)cc(O)c12` [quercitin], at type-1 5 alpha-reductase, the “inhibition of type-1 5 alpha-reductase” value is reported as “potent inhibitors”. Turning to `O=C(O)c1ccccc1O` [salicylic acid, Salicylic acid], the comedolytic effect entry in the data set on comedones (concentrations of 0.5% to 2.0%) is listed as “moderately comedolytic”. epigallocatechin 3-gallate [EGCG]: in the data set on 5 alpha-reductase [1] (cell-free), the “inhibition of 5 alpha-reductase in cell-free assay systems” value is reported as “potent inhibition”. For the same compound, the “inhibition of 5 alpha-reductase in whole-cell assay systems” value with 5 alpha-reductase [3] is on record as “not in whole-cell assay systems”.
